Data published in patent US20220142941A1, “COMBINATION THERAPEUTIC REGIMENS WITH 1,6-DIBROMO-1,6-DIDEOXY-DULCITOL” (Eleison Pharmaceuticals LLC, priority 2019, published 2022).

Assays:
Assay in all cases: DBD combination treatment, viability enhancement factor
Type in all cases: cell-based, human
GS102periNS = GS102periNS (p20 + p21), labelled therapy combined with crystalline DBD polymorph
Experimental: (§1) Crystalline DBD polymorph treatment was combined with chemotherapy, radiotherapy and targeted inhibitors to determine whether the crystalline DBD polymorph form could: enhance efficacy of the conventional therapies; enhance efficacy when combined with newer ‘targeted’ therapies; or would make (a subset of) cultures more sensitive to this treatment.
(§2) Therefore, cultures were treated with: • a.

GS104periNS = GS104periNS (p21 + p22), labelled therapy combined with crystalline DBD polymorph
Experimental: as §1, §2

GS184NS = GS184NS (p18 + p19), labelled therapy combined with crystalline DBD polymorph;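 further: DBD at its own IC50 and half IC50 determined at Day 5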
Experimental: as §1, §2

GS186coreNS = GS186coreNS (p18), labelled therapy combined with crystalline DBD polymorph
Experimental: as §1, §2

GS186periNS = GS186periNS (p15), labelled therapy combined with crystalline DBD polymorph
Experimental: as §1, §2

GS224NS = GS224NS (p17), labelled therapy combined with crystalline DBD polymorph
Experimental: as §1, §2

GS245NS = GS245NS (p16 + p15), labelled therapy combined with crystalline DBD polymorph
Experimental: as §1, §2

GS249NS = GS249NS (p17), labelled therapy combined with crystalline DBD polymorph
Experimental: as §1, §2

GS257NS = GS257NS (p16 + p17), labelled therapy combined with crystalline DBD polymorph;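 further: DBD at its own IC50 and half IC50 determined at Day 5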
Experimental: as §1, §2

GS261NS = GS261NS (p13), labelled therapy combined with crystalline DBD polymorph
Experimental: as §1, §2

GS279coreNS = conditions: Day 5; GS279coreNS (p12 + p13); labelled therapy combined with crystalline DBD polymorph
Experimental: as §1, §2

GS279periNS = GS279periNS (p16 + p15), labelled therapy combined with crystalline DBD polymorph;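 further: DBD at its own IC50 and half IC50 determined at Day 5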
Experimental: as §1, §2

GS281NS = GS281NS (p15), labelled therapy combined with crystalline DBD polymorph
Experimental: as §1, §2

GS289NS = GS289NS (p15 + p16), labelled therapy combined with crystalline DBD polymorph;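 further: DBD at its own IC50 and half IC50 determined at Day 5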
Experimental: as §1, §2

GS304NS = GS304NS (p16), labelled therapy combined with crystalline DBD polymorph
Experimental: as §1, §2

GS323periNS = conditions: Day 5; GS323periNS (p20 + p19); labelled therapy combined with crystalline DBD polymorph
Experimental: as §1, §2

GS324coreNS = GS324coreNS (p19), labelled therapy combined with crystalline DBD polymorph
Experimental: as §1, §2

GS359NS = GS359NS (p15 + p14), labelled therapy combined with crystalline DBD polymorph
Experimental: as §1, §2

GS365NS = GS365NS (p17 + p16), labelled therapy combined with crystalline DBD polymorph
Experimental: as §1, §2

GS203NS = conditions: Day 8; GS203NS (P19 + p18); labelled therapy combined with crystalline DBD polymorph
Experimental: as §1, §2

SMILES | enhancement factor (viability % of most effective monotherapy divided by viability % of combination) (GS102periNS; Day 5) | enhancement factor (viability % of most effective monotherapy divided by viability % of combination) (GS102periNS; Day 8) | enhancement factor (viability % of most effective monotherapy divided by viability % of combination) (GS104periNS; Day 8) | enhancement factor (viability % of most effective monotherapy divided by viability % of combination) (GS184NS; Day 5) | enhancement factor (viability % of most effective monotherapy divided by viability % of combination) (GS184NS; Day 8) | enhancement factor (viability % of most effective monotherapy divided by viability % of combination) (GS186coreNS; Day 5) | enhancement factor (viability % of most effective monotherapy divided by viability % of combination) (GS186coreNS; Day 8) | enhancement factor (viability % of most effective monotherapy divided by viability % of combination) (GS186periNS; Day 5) | enhancement factor (viability % of most effective monotherapy divided by viability % of combination) (GS186periNS; Day 8) | enhancement factor (viability % of most effective monotherapy divided by viability % of combination) (GS224NS; Day 5) | enhancement factor (viability % of most effective monotherapy divided by viability % of combination) (GS224NS; Day 8) | enhancement factor (viability % of most effective monotherapy divided by viability % of combination) (GS245NS; Day 5) | enhancement factor (viability % of most effective monotherapy divided by viability % of combination) (GS245NS; Day 8) | enhancement factor (viability % of most effective monotherapy divided by viability % of combination) (GS249NS; Day 5) | enhancement factor (viability % of most effective monotherapy divided by viability % of combination) (GS257NS; Day 5) | enhancement factor (viability % of most effective monotherapy divided by viability % of combination) (GS257NS; Day 8) | enhancement factor (viability % of most effective monotherapy divided by viability % of combination) (GS279coreNS) | enhancement factor (viability % of most effective monotherapy divided by viability % of combination) (GS279periNS; Day 5) | enhancement factor (viability % of most effective monotherapy divided by viability % of combination) (GS279periNS; Day 8) | enhancement factor (viability % of most effective monotherapy divided by viability % of combination) (GS281NS; Day 5) | further results
C[C@]1(c2nc3c(C(N)=O)cccc3[nH]2)CCCN1 [ABT-888] | 1.248 | 1.055 | 1.810 | 1.084 | 1.044 | 1.394 | 1.359 | 1.134 | 1.319 | 1.105 | 1.201 | 1.256 | 0.991 | 2.994 | 0.922 | 1.053 | 1.321 | 1.146 | 1.102 | 0.933 | enhancement factor (viability % of most effective monotherapy divided by viability % of combination) (GS104periNS; Day 5): 1.175; enhancement factor (viability % of most effective monotherapy divided by viability % of combination) (GS249NS; Day 8): 5.030; enhancement factor (viability % of most effective monotherapy divided by viability % of combination) (GS261NS; Day 5): 1.388; enhancement factor (viability % of most effective monotherapy divided by viability % of combination) (GS261NS; Day 8): 1.631; enhancement factor (viability % of most effective monotherapy divided by viability % of combination) (GS281NS; Day 8): 0.812; enhancement factor (viability % of most effective monotherapy divided by viability % of combination) (GS289NS; Day 5): 1.112; enhancement factor (viability % of most effective monotherapy divided by viability % of combination) (GS289NS; Day 8): 1.113; enhancement factor (viability % of most effective monotherapy divided by viability % of combination) (GS304NS; Day 5): 1.245; enhancement factor (viability % of most effective monotherapy divided by viability % of combination) (GS304NS; Day 8): 1.933; enhancement factor (viability % of most effective monotherapy divided by viability % of combination) (GS323periNS): 1.106; enhancement factor (viability % of most effective monotherapy divided by viability % of combination) (GS324coreNS; Day 5): 1.275; enhancement factor (viability % of most effective monotherapy divided by viability % of combination) (GS324coreNS; Day 8): 1.322; enhancement factor (viability % of most effective monotherapy divided by viability % of combination) (GS359NS; Day 5): 1.175; enhancement factor (viability % of most effective monotherapy divided by viability % of combination) (GS359NS; Day 8): 1.148; enhancement factor (viability % of most effective monotherapy divided by viability % of combination) (GS365NS; Day 5): 1.096; enhancement factor (viability % of most effective monotherapy divided by viability % of combination) (GS365NS; Day 8): 1.052
C/C(=C\C(=O)Nc1ccccc1C(=O)O)c1ccc2ccccc2c1 [BIBR1532] | 1.414 | 2.661 | 1.247 | 1.752 | 1.367 | 1.787 | 1.498 | 2.900 | 1.010 | 0.969 | 0.469 | 1.364 | 1.936 | 0.909 | 1.322 | 2.162 | 1.526 | 1.361 | 1.214 | 0.641 | enhancement factor (viability % of most effective monotherapy divided by viability % of combination) (GS203NS): 1.110; enhancement factor (viability % of most effective monotherapy divided by viability % of combination) (GS281NS; Day 8): 2.457; enhancement factor (viability % of most effective monotherapy divided by viability % of combination) (GS289NS; Day 5): 1.383; enhancement factor (viability % of most effective monotherapy divided by viability % of combination) (GS289NS; Day 8): 1.879; enhancement factor (viability % of most effective monotherapy divided by viability % of combination) (GS304NS; Day 8): 1.065; enhancement factor (viability % of most effective monotherapy divided by viability % of combination) (GS323periNS): 0.959; enhancement factor (viability % of most effective monotherapy divided by viability % of combination) (GS324coreNS; Day 5): 1.282; enhancement factor (viability % of most effective monotherapy divided by viability % of combination) (GS324coreNS; Day 8): 1.713; enhancement factor (viability % of most effective monotherapy divided by viability % of combination) (GS359NS; Day 5): 2.499; enhancement factor (viability % of most effective monotherapy divided by viability % of combination) (GS359NS; Day 8): 1.168; enhancement factor (viability % of most effective monotherapy divided by viability % of combination) (GS365NS; Day 5): 1.767; enhancement factor (viability % of most effective monotherapy divided by viability % of combination) (GS365NS; Day 8): 2.954
